Measurements taken from patent US9302999B2, “Substituted triazoles as herbicides” (E. I. DU PONT DE NEMOURS AND COMPANY, priority 2012, dated 2016).

How the values were obtained:
Assay type in all cases: in vivo
[1] = tested on: surinam grass (Brachiaria decumbens); experiment: Test C pre-/postemergence: surinam grass
Description: Seeds of plant species selected from blackgrass (Alopecurus myosuroides), bromegrass, downy (downy bromegrass, Bromus tectorum), foxtail, green (green foxtail, Setaria viridis), ryegrass, Italian (Italian ryegrass, Lolium multiflorum), winter wheat (Triticum aestivum), wild oat (Avena fatua), galium (catchweed bedstraw, Galium aparine), bermudagrass (Cynodon dactylon), surinam grass (Brachiaria decumbens), cocklebur (common cocklebur, Xanthium strumarium), corn (Zea mays), large crabgrass (Digitaria sanguinalis), woolly cupgrass (Eriochloa villosa), foxtail, giant (giant foxtail, Setaria faberii), goosegrass (Eleusine indica), johnsongrass (Sorghum halepense), kochia (Kochia scoparia), lambsquarters (Chenopodium album), morningglory (Ipomoea coccinea), nightshade (eastern black nightshade, Solanum ptycanthum), nutsedge, yellow (yellow nutsedge, Cyperus esculentus), pigweed (Amaranthus retroflexus), ragweed (common ragweed, Ambrosia elation), soybean (Glycine max), common (oilseed) sunflower (Helianthus annuus), Russian thistle (Salsola kali) and velvetleaf (Abutilon theophrasti) were planted into a blend of loam soil and sand and treated preemergence with test chemicals formulated in a non-phytotoxic solvent mixture which included a surfactant.
At the same time, plants selected from these crop and weed species and also barley (winter barley, Hordeum vulgare), canarygrass (Phalaris minor), chickweed (common chickweed, Stellaria media) windgrass (Apera spica-venti) and deadnettle (henbit deadnettle, Lamium amplexicaule) were planted in pots containing Redi-Earth® planting medium (Scotts Company, 14111 Scottslawn Road, Marysville, Ohio 43041) comprising spaghnum peat moss, vermiculite, wetting agent and starter nutrients and treated with postemergence applications of test chemicals formulated in the same manner. Plants ranged in height from 2 to 18 cm (1- to 4-leaf stage) for postemergence treatments.
(§1) Treated plants and controls were maintained in a greenhouse for 13 to 15 days, after which time all species were compared to controls and visually evaluated. Plant response ratings, summarized in Table C, are based on a scale of 0 to 100 where 0 is no effect and 100 is complete control. A dash (-) response means no test result.

[2] = tested on: bromegrass, downy (downy bromegrass, Bromus tectorum); experiment: Test D pre-/postemergence: bromegrass, downy
Description: (§2) Seeds of plant species selected from bluegrass (annual bluegrass, Poa annua), blackgrass (Alopecurus myosuroides), canarygrass (Phalaris minor), chickweed (common chickweed, Stellaria media), galium (catchweed bedstraw, Galium aparine), bromegrass, downy (downy bromegrass, Bromus tectorum), field poppy (Papaver rhoeas), field violet (Viola arvensis), foxtail, green (green foxtail, Setaria viridis), deadnettle (henbit deadnettle, Lamium amplexicaule), ryegrass, Italian (Italian ryegrass, Lolium multiflorum), kochia (Kochia scoparia), lambsquarters (Chenopodium album), oilseed rape (Brassica napus), pigweed (Amaranthus retroflexus), Russian thistle (Salsola iberica), chamomile (scentless chamomile, Matricaria inodora), speedwell (bird's-eye speedwell, Veronica persica), barley, spring (spring barley, Hordeum vulgare), wheat, spring (spring wheat, Triticum aestivum), buckwheat, wild (wild buckwheat, Polygonum convolvulus), mustard, wild (wild mustard, Sinapis arvensis), oat, wild (wild oat, Avena fatua), radish, wild (wild radish, Raphanus raphanistrum), windgrass (Apera spica-venti), barley, winter (winter barley, Hordeum vulgare), and wheat, winter (winter wheat, Triticum aestivum) were planted into a silt loam soil and treated preemergence with test chemicals formulated in a non-phytotoxic solvent mixture which included a surfactant. At the same time, these same crop and weed species were planted in pots containing the planting medium comprising spaghnum peat moss, vermiculite, wetting agent and starter nutrients and treated with postemergence applications of the test chemicals formulated in the same manner. Plants ranged in height from 2 to 18 cm (1- to 4-leaf stage).
as §1, with “controlled growth environment” for “greenhouse”, “14” for “13”, “21 days” for “15 days,”, “D,” for “C,”

[3] = tested on: wheat, winter (winter wheat, Triticum aestivum); experiment: Test D pre-/postemergence: wheat, winter
Description: as §2
as §1, with “controlled growth environment” for “greenhouse”, “14” for “13”, “21 days” for “15 days,”, “D,” for “C,”

[4] = Postemergence, 31 g ai/ha, scale 0 to 100 (0 no effect, 100 complete control)
[5] = Postemergence, 62 g ai/ha, scale 0 to 100 (0 no effect, 100 complete control)
[6] = Postemergence, 125 g ai/ha, scale 0 to 100, 0 no effect, 100 complete control
[7] = Postemergence, 250 g ai/ha, scale 0 to 100
[8] = Preemergence, 31 g ai/ha, scale of 0 to 100, 0 is no effect, 100 is complete control
[9] = Preemergence, 62 g ai/ha, scale of 0 to 100, 0 is no effect, 100 is complete control
[10] = Preemergence, 125 g ai/ha, scale 0 to 100, 0 no effect, 100 complete control
[11] = Preemergence, 250 g ai/ha, scale 0 to 100, 0 no effect, 100 complete control
[12] = Postemergence, 250 g ai/ha, scale 0 to 100 (0 no effect, 100 complete control)
[13] = Preemergence, 31 g ai/ha, scale 0 to 100, 0 no effect, 100 complete control
[14] = Preemergence, 62 g ai/ha, scale 0 to 100
[15] = Preemergence, 125 g ai/ha, scale 0 to 100
[16] = Preemergence, 250 g ai/ha, scale 0 to 100
[17] = Postemergence, 16 g ai/ha, scale 0 to 100

| SMILES | Plant response rating, Surinam Grass [1, 4] | Plant response rating, Surinam Grass [1, 5] | Plant response rating, Surinam Grass [1, 6] | Plant response rating, Surinam Grass [1, 7] | Plant response rating, Surinam Grass [1, 8] | Plant response rating, Surinam Grass [1, 9] | Plant response rating, Surinam Grass [1, 10] | Plant response rating, Surinam Grass [1, 11] | Plant response rating: Bromegrass, Downy [2, 4] | Plant response rating: Bromegrass, Downy [2, 5] | Plant response rating: Bromegrass, Downy [2, 6] | Plant response rating: Bromegrass, Downy [2, 12] | Plant response rating, Bromegrass, Downy [2, 13] | Plant response rating, Bromegrass, Downy [2, 14] | Plant response rating, Bromegrass, Downy [2, 15] | Plant response rating, Bromegrass, Downy [2, 16] | Plant response rating: Wheat, Winter [3, 4] | Plant response rating: Wheat, Winter [3, 5] | Plant response rating: Wheat, Winter [3, 6] | Plant response rating: Wheat, Winter [3, 12] | further results |
| --- | --- | --- | --- | --- | --- | --- | --- | --- | --- | --- | --- | --- | --- | --- | --- | --- | --- | --- | --- | --- | --- |
| FC(F)(F)COc1nn(-c2ccc(C(F)(F)F)cc2)nc1Cc1ccnc(C(F)(F)F)c1 [Compound 14, 4-[[5-(2,2,2-trifluoroethoxy)-2-[4-(trifluoromethyl)phenyl]-2H-1,2,3-triazol-4-yl]methyl]-2-(trifluoromethyl)pyridine] | 5 | 5 | 30 | 55 | 20 | 45 | 60 | 85 | 15 | 20 | 30 | 40 | 0 | 10 | 20 | 30 | 5 | 5 | 15 | 25 | Plant response rating, Wheat, Winter [3, 13]: 0; Plant response rating, Wheat, Winter [3, 14]: 0; Plant response rating, Wheat, Winter [3, 15]: 10; Plant response rating, Wheat, Winter [3, 16]: 20 |
| COc1nn(-c2ccc(C(F)(F)F)cc2)nc1Cc1ccnc(C(F)(F)F)c1 [Compound 15, 4-[[5-methoxy-2-[4-(trifluoromethyl)phenyl]-2H-1,2,3-triazol-4-yl]methyl]-2-(trifluoromethyl)pyridine] | 10 | 15 | 50 | – | 40 | 55 | 90 | – | 10 | 10 | 20 | 40 | 0 | 0 | 0 | 40 | 10 | 15 | 25 | 35 | Plant response rating, Surinam Grass ([1]; Postemergence, 16 g ai/ha, scale 0 to 100, 0 no effect, 100 complete control): 5; Plant response rating, Surinam Grass ([1]; Preemergence, 16 g ai/ha, scale 0 (no effect) to 100 (complete control)): 10; Plant response rating, Bromegrass, Downy [2, 17]: 5; Plant response rating, Wheat, Winter [3, 17]: 5; Plant response rating, Wheat, Winter [3, 13]: 0; Plant response rating, Wheat, Winter [3, 14]: 0; Plant response rating, Wheat, Winter [3, 15]: 0; Plant response rating, Wheat, Winter [3, 16]: 5 |
| Cc1nn(-c2ccc(C(F)(F)F)cn2)nc1Oc1ccnc(C(F)(F)F)c1 [Compound 23] | 5 | 10 | 10 | 15 | 15 | 60 | 100 | 100 | 10 | 15 | 20 | 25 | – | – | – | – | 5 | 10 | 15 | 15 | Plant response rating, Bromegrass, Downy [2, 17]: 0; Plant response rating, Wheat, Winter [3, 17]: 0 |
| Fc1ccc(-n2nc(Cc3ccnc(C(F)(F)F)c3)c(OC(F)F)n2)cc1 [Compound 25] | 10 | 15 | 20 | 20 | 15 | 20 | 55 | 100 | – | – | – | – | – | – | – | – | – | – | – | – | – |
| FC(F)Oc1nn(-c2ccc(C(F)(F)F)cc2)nc1Cc1ccnc(C(F)(F)F)c1 [Compound 26] | 15 | 20 | 25 | 45 | 10 | 50 | 65 | 90 | – | – | – | – | – | – | – | – | – | – | – | – | – |
| FC(F)(F)c1ccc(-n2nc(Cl)c(Cc3ccnc(C(F)(F)F)c3)n2)cc1 [Compound 28] | 5 | 10 | 15 | 15 | – | – | – | – | – | – | – | – | – | – | – | – | – | – | – | – | – |
| Cc1nn(-c2ccc(C(F)(F)F)cn2)nc1Cc1cccc(C(F)(F)F)c1 [Compound 106] | 20 | 25 | 35 | 40 | 5 | 20 | 80 | 90 | 0 | 10 | 15 | 15 | 0 | 0 | 0 | 0 | 5 | 5 | 5 | 5 | Plant response rating, Bromegrass, Downy [2, 17]: 0; Plant response rating, Wheat, Winter [3, 17]: 5; Plant response rating, Wheat, Winter [3, 13]: 0; Plant response rating, Wheat, Winter [3, 14]: 0; Plant response rating, Wheat, Winter [3, 15]: 0; Plant response rating, Wheat, Winter [3, 16]: 0 |
| Cc1nn(-c2ccnc(Cl)c2)nc1Cc1ccnc(C(F)(F)F)c1 [Compound 141] | 15 | 15 | 30 | 30 | – | – | – | – | – | – | – | – | – | – | – | – | – | – | – | – | – |
